Where two headings read alike, the source gives them in different places.
Columns and labels:
[1] = test system: barnyardgrass; assay: Test B pre-/postemergence herbicide test; assay type: in vivo, Echinochloa crus-galli; details: for Plant response rating (0 to 100 scale), Barnyardgrass: 0 is no effect; for Plant response rating (0 to 100 scale), Barnyardgrass / Barnyardgrass plant response rating (0 to 100 scale) / Plant response rating, Barnyardgrass: preemergence; for pest or weed control at 125 g/ha / pest or weed control at 500 g/ha: Echinochloa crus-galli
Summary of the method: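 Response was scored visually 13 to 15 days after treatment against untreated greenhouse controls, 0 meaning no effect and 100 complete control. Formulations (solvent mixture plus surfactant) went onto soil after planting, onto foliage of 1- to 4-leaf plants, and onto 2-leaf plants in a flooded paddy set including rice and barnyardgrass.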

[2] = test system: ducksalad; assay: Test B flooded paddy test; assay type: in vivo, Heteranthera limosa; details: 1000 g ai/ha, scale 0 to 100 (0 no effect, 100 complete control); for pest or weed control at 1000 g/ha: Heteranthera limosa, 336 h, read-out: Ducksalad plant response rating
Summary of the method: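 Visual control ratings, 0–100 versus untreated controls, taken after 13 to 15 days in the greenhouse. Blackgrass received a postemergence spray at the 1- to 4-leaf stage (2–18 cm); ducksalad, umbrella sedge and barnyardgrass were flooded-paddy treated at 2 leaves.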

[3] = 125 g ai/ha, 100 is complete control
[4] = Postemergence, 125 g ai/ha, scale 0 (no effect) to 100 (complete control)
[5] = Postemergence, 500 g ai/ha, scale 0 (no effect) to 100 (complete control)
[6] = 125 g ai/ha, visual rating, scale 0 (no effect) to 100 (complete control), postemergence
[7] = postemergence, 500 g ai/ha, scale 0 to 100, 0 is no effect, 100 is complete control
[8] = pre-emergence, 125 g ai/ha, 0 = no effect, 100 = complete control, read-out: Barnyardgrass plant response rating (0 to 100 scale)
[9] = pre-emergence, 500 g ai/ha, visual rating, 0 = no effect, 100 = complete control, read-out: Plant response rating, Barnyardgrass
[10] = 125 g ai/ha, 0 = no effect, 100 = complete control
[11] = 500 g ai/ha, visual rating, 0 = no effect, 100 = complete control

SMILES: C#CCOc1cccc(NC(=O)c2cc(C(C)(C)C)nn2CC)c1 [Compound 411]
- Plant response rating (0 to 100 scale), Barnyardgrass [1, 3]: 60
- Barnyardgrass plant response rating [1, 4]: 0
- Barnyardgrass plant response rating [1, 5]: 30
- Ducksalad plant response rating [2]: 80

SMILES: C=CCOc1cccc(NC(=O)c2cc(C(C)(C)C)nn2CC)c1 [Compound 412]
- Plant response rating (0 to 100 scale), Barnyardgrass [1, 3]: 40
- Barnyardgrass plant response rating [1, 4]: 0
- Barnyardgrass plant response rating [1, 5]: 0
- Ducksalad plant response rating [2]: 80

SMILES: C#CCNC(=O)c1cccc(NC(=O)c2nn(C(C)(C)C)nc2CC)c1 [Compound 380]
- Plant response rating (0 to 100 scale), Barnyardgrass [1, 3]: 70
- Barnyardgrass plant response rating [1, 6]: 0
- Barnyardgrass plant response rating [1, 7]: 0
- Ducksalad plant response rating [2]: 80

SMILES: CCNC(=O)c1cc(NC(=O)c2cn(C(C)(C)C)nc2CC)ccc1F [Compound 241, 1-(1,1-dimethylethyl)-3-ethyl-N-[3-[(ethylamino)carbonyl]-4-fluorophenyl]-1H-pyrazole-4-carboxamide]
- pest or weed control at 125 g/ha ([1]; post-emergence, postemergence, 125 g ai/ha, visual rating, scale 0 (no effect) to 100 (complete control), read-out: Barnyardgrass plant response rating): 0%
- pest or weed control at 500 g/ha ([1]; post-emergence, postemergence, 500 g ai/ha, visual rating, scale 0 (no effect) to 100 (complete control), read-out: Barnyardgrass plant response rating): 0%
- pest or weed control at 125 g/ha [1, 8]: 0%
- pest or weed control at 500 g/ha [1, 9]: 80%
- pest or weed control at 1000 g/ha [2]: 70%

SMILES: CCn1nc(C(C)(C)C)cc1C(=O)Nc1ccc(F)c(C(=O)N(C)C)c1 [Compound 236, N-[3-[(dimethylamino)carbonyl]-4-fluorophenyl]-3-(1,1-dimethylethyl)-1-ethyl-1H-pyrazole-5-carboxamide]
- pest or weed control at 125 g/ha [1, 8]: 50%
- pest or weed control at 500 g/ha [1, 9]: 90%
- pest or weed control at 1000 g/ha [2]: 90%

SMILES: CCc1nn(C(C)C)nc1C(=O)Nc1cccc(C(=O)N(C)C)c1 [Compound 358, N-[3-[(dimethylamino)carbonyl)phenyl]-5-ethyl-2-(1-methylethyl)-2H-1,2,3-triazole-4-carboxamide]
- Plant response rating (0 to 100 scale), Barnyardgrass [1, 3]: 70
- pest or weed control at 125 g/ha ([1]; post-emergence, 125 g ai/ha, visual rating, scale 0 (no effect) to 100 (complete control), read-out: Barnyardgrass plant response rating): 10%
- pest or weed control at 500 g/ha ([1]; post-emergence, postemergence, 500 g ai/ha, scale 0 to 100, 0 is no effect, 100 is complete control, read-out: Barnyardgrass plant response rating): 20%
- pest or weed control at 500 g/ha [1, 9]: 100%
- pest or weed control at 1000 g/ha [2]: 90%

SMILES: CCOC(=O)c1ccc(F)c(NC(=O)c2cc(C3(C)CC3)nn2CC)c1 [Compound 296]
- Barnyardgrass plant response rating (0 to 100 scale) [1, 10]: 30
- Barnyardgrass plant response rating [1, 6]: 30
- Plant response rating, Barnyardgrass [1, 11]: 60
- Barnyardgrass plant response rating [1, 7]: 80
- Ducksalad plant response rating [2]: 80

SMILES: CCn1nc(C(C)(C)C)cc1C(=O)Nc1cc(C(=O)OC(C)C)c(F)cc1F [Compound 248]
- Barnyardgrass plant response rating (0 to 100 scale) [1, 10]: 0
- Plant response rating, Barnyardgrass [1, 11]: 20
- Barnyardgrass plant response rating ([1]; postemergence, 125 g ai/ha, visual rating, scale 0 (no effect) to 100 (complete control)): 10
- Barnyardgrass plant response rating ([1]; postemergence, 500 g ai/ha, visual rating, scale 0 (no effect) to 100 (complete control)): 40
- Ducksalad plant response rating [2]: 30
